Tests used:
[1] = In vivo near-infrared imaging of the sentinel lymph node after subcutaneous footpad injection; parameters: species or system BALB/c nude mice; conditions: 0.01% solution, 50 μl s.c. into left forefoot, 30 minutes after injection
Method: In animal tests, 6-week-old female BALB/c nude mice (SLC Inc., Japan) with no pathogens were used. All the tests were performed under the approval of the Laboratory Animal Center, Chungnam National University.
For data acquisition and analysis, images (see FIG. 3) were obtained using a home-made NIR optical imaging system (see FIG. 2) manufactured by the present inventors. Herein, the near-infrared optical imaging system comprises a light source consisting of a 500 mW fiber-type laser, an emission filter, a lens system equipped with a microzoom, and a near-infrared detector (NIR CCD detector) (see FIG. 2). In the near infrared imaging system, the intensity of fluorescence appears as a pseudo color, and more red fluorescence indicates stronger intensity.
Before imaging, mice were anesthetized by intraperitoneally injecting a 2.5% avertin (2,2,2-tribromoethanol-tert-amyl alcohol, Sigma) solution at a dose of 0.01 Ml/g weight. 50 μl of each of an ICG solution (0.01%), ICG/γ-PGA (50 kDa) complex solutions (0.01%, 0.1% and 1%) and ICG/γ-PGA (7000 kDa) complex solutions (0.01%, 0.1% and 1%) was injected into the left forefoot of each nude mouse (footpad, subcutaneous injection), and after 5 min, 20 min and 30 min, the fluorescence of the sentinel lymph node was measured. […]

[2] = Light stability: near-infrared fluorescence intensity of solutions kept at room temperature for 3 days; type: physicochemical; conditions: 50 μl of solution (0.01% ICG) in tube, after 3 days
Method: 50 μl of the prepared ICG/γ-PGA complex solution was dispensed into a 1.5 Ml tube, and then the near-infrared fluorescence spectrum thereof was measured using a fluorescence spectrophotometer (FluoroMate FS-2) (see FIG. 1).

With `CC1(C)C(/C=C/C=C/C=C/C=C2\N(CCCCS(=O)(=O)O)c3ccc4ccccc4c3C2(C)C)=[N+](CCCCS(=O)(=O)[O-])c2ccc3ccccc3c21` [ICG, Indocyanine green] the “intensity of fluorescence emitted from the sentinel lymph node” value [1] was “very weak”, the “retention in the sentinel lymph node / migration to other lymph nodes” value [1] was “did not remain in the sentinel lymph node and migrated to other lymph node” and the “fluorescence intensity (light stability)” value [2] was “rapidly decreased”.

From US9623121B2, “Optical-imaging probe for detecting sentinel lymph nodes which contains a composite of poly-gamma-glutamic acid and an optical-imaging dye” (BIOLEADERS CORPORATION, priority 2010, dated 2017)
